Results as given in patent publication US11420977B2, “Late SV40 (LSF) inhibitors” (Trustees of Boston University, priority 2018, dated 2022).

How the values were obtained:
Assay type in all cases: cell-based
CaCo-2 cells = experiment: MTS cell proliferation assay, CaCo-2; conditions: Homo sapiens, 72-hour incubation
Procedure: (§1) Cell lines and culture conditions: Human colon cancer cells Caco-2, HT29 and HCT15, human pancreatic cancer cells BxPC3, CFPAC-1, and CAPAN-2, liver cancer cells SNU423 and kidney cells HEK293, were obtained from American Type Culture Collection (Rockville, USA). HeLa, DLD1, U937, THP-1, and NIH3T3 cells were obtained from ATCC. Huh7 cells were obtained from (Japanese Cancer Resources Bank). HeLa cells, Huh7, DLD1 and NIH-3T3 cells were cultured in DMEM (Dulbecco's modification of Eagle's Medium; Corning) supplemented with 10% Fetal Bovine Serum (FBS; Invitrogen) and 10% Fetal Calf Serum (FCS; Atlanta Biologicals) respectively. […]
(§2) MTS cell proliferation assay: Cells were detached from the plates using trypsin (0.25% for 3 mins, ATCC) and counted using a hemocytometer and were plated at 3000-1500 cells per well, in a 96-well format. […] After a 72-hour (or 120 hrs for BxPC3, CAPAN-2, SNU423) incubation with compound or vehicle, cell growth was assessed via the Promega CellTiter 96® AQueous One Solution Cell Proliferation Assay, a colorimetric method to determine the number of viable cells. 20 μL of the CellTiter 96® AQueous One Solution Reagent was added directly into cultured wells and incubated for approximately one hour, after which the absorbance at 490 nm was read with a 96-well plate reader (Opys MR Microplate Reader). […]

HuH7 cells = experiment: MTS cell proliferation assay, HuH7; conditions: Homo sapiens, Huh-7, 72-hour incubation
Procedure: (§3) Cell lines and culture conditions: Human colon cancer cells Caco-2, HT29 and HCT15, human pancreatic cancer cells BxPC3, CFPAC-1, and CAPAN-2, liver cancer cells SNU423 and kidney cells HEK293, were obtained from American Type Culture Collection (Rockville, USA). HeLa, DLD1, U937, THP-1, and NIH3T3 cells were obtained from ATCC. Huh7 cells were obtained from (Japanese Cancer Resources Bank). HeLa cells, Huh7, DLD1 and NIH-3T3 cells were cultured in DMEM (Dulbecco's modification of Eagle's Medium; Corning) supplemented with 10% Fetal Bovine Serum (FBS; Invitrogen) and 10% Fetal Calf Serum (FCS; Atlanta Biologicals) respectively. U937, BxPC3, HCT15, SNU423 and THP-1 cells were grown in RPMI-1640 (Roswell Park Memorial Institute; Corning) supplemented with 10% Fetal Bovine Serum (FBS; Invitrogen). CFPAC-1 cells were cultured in Iscove's Modified Dulbecco's Medium (ATCC) supplemented with 10% FBS. CAPAN-2 and HT29 cells were cultured in McCoy's 5a medium supplemented with 10% FBS. Caco2 and HEK293 cells were grown in Eagle's Minimum Essential Medium (ATCC) with final 20% FBS concentration. All cells were maintained at 37° C. in 5% CO2 at constant 70% humidity.
(§4) MTS cell proliferation assay: Cells were detached from the plates using trypsin (0.25% for 3 mins, ATCC) and counted using a hemocytometer and were plated at 3000-1500 cells per well, in a 96-well format. The cells were seeded in the inner wells of 96 well plates, and media was added to the outer wells (blank). For NIH-3T3, 1500 cells were seeded in the inner wells of 96-well plates, and after 20 hours cells were treated with compound or DMSO (vehicle control) at appropriate concentrations (DMSO at final concentration of 1%). For other adherent cells 3000 HeLa, BxPC3, CFPAC-1, CAPAN-2, HEK293, HCT15, HT29, CaCo2, DLD1, Huh7 or SNU423 cells were seeded in in each well approximately 20 hrs prior to the treatment. For U937 and THP-1 suspension cells, 2500 cells were added to the wells of a 96-well plate on the day of treatment. After a 72-hour (or 120 hrs for BxPC3, CAPAN-2, SNU423) incubation with compound or vehicle, cell growth was assessed via the Promega CellTiter 96® AQueous One Solution Cell Proliferation Assay, a colorimetric method to determine the number of viable cells. 20 μL of the CellTiter 96® AQueous One Solution Reagent was added directly into cultured wells and incubated for approximately one hour, after which the absorbance at 490 nm was read with a 96-well plate reader (Opys MR Microplate Reader). GI50 values were determined from plots of the percentage of compound-treated cell growth to vehicle cell growth vs. compound concentration (GraphPad Prism; non-linear regression, log inhibitor verse normalized response with variable slope).

HCT-15 cells = experiment: MTS cell proliferation assay, HCT-15; conditions: Homo sapiens, 72-hour incubation
Procedure: as §1, §2

SNU-423 cells = experiment: MTS cell proliferation assay, SNU-423; conditions: Homo sapiens, 120 hrs incubation
Procedure: as §3, §4

HT-29 cells = experiment: MTS cell proliferation assay, HT-29; conditions: Homo sapiens, 72-hour incubation
Procedure: as §1, §2

NIH 3T3 cells = experiment: MTS cell proliferation assay, NIH 3T3; conditions: Mus musculus, NIH3T3, 72-hour incubation
Procedure: as §3, with “All cells were maintained at 37° C. in 5% CO2 at constant 70% humidity.” left out
(§5) MTS cell proliferation assay: Cells were detached from the plates using trypsin (0.25% for 3 mins, ATCC) and counted using a hemocytometer and were plated at 3000-1500 cells per well, in a 96-well format. […] After a 72-hour (or 120 hrs for BxPC3, CAPAN-2, SNU423) incubation with compound or vehicle, cell growth was assessed via the Promega CellTiter 96® AQueous One Solution Cell Proliferation Assay, a colorimetric method to determine the number of viable cells. 20 μL of the CellTiter 96® AQueous One Solution Reagent was added directly into cultured wells and incubated for approximately one hour, after which the absorbance at 490 nm was read with a 96-well plate reader (Opys MR Microplate Reader). GI50 values were determined from plots of the percentage of compound-treated cell growth to vehicle cell growth vs. compound concentration (GraphPad Prism; non-linear regression, log inhibitor verse normalized response with variable slope).

HeLa cells = experiment: MTS cell proliferation assay, HeLa; conditions: Homo sapiens, 72-hour incubation
Procedure: as §3, with “All cells were maintained at 37° C. in 5% CO2 at constant 70% humidity.” left out
as §5

Row | GI50 (CaCo-2 cells) | GI50 (HuH7 cells) | GI50 (HCT-15 cells) | GI50 (SNU-423 cells) | GI50 (HT-29 cells) | GI50 (HeLa cells) | SMILES | GI50 (NIH 3T3 cells)
1 | 141 nM | 70 nM | 18 nM | 141 nM | 398 nM | – | CCOc1cc(N(C)C)ccc1C1CC(=O)Nc2cc3c(cc21)OCCO3 (racemic) [FQI-37, 9-[4-(dimethylamino)-2-ethoxy-phenyl]-3,6,8,9-tetrahydro-2H-[1,4]dioxino[2,3-g]quinolin-7-one] | –
2 | – | 56 nM | – | 50 nM | – | 3800 nM | CCOc1cc(N(C)C)ccc1[C@H]1CC(=O)Nc2cc3c(cc21)OCO3 [(S)-FQI-34] | 590 nM
3 | – | 126 nM | – | 147 nM | – | – | CCOc1cc(N(C)C)ccc1[C@@H]1CC(=O)Nc2cc3c(cc21)OCCO3 [(R)-FQI-37] | –
